Assay results reported in ChEMBL document CHEMBL1154562, “Malevamides A-C, new depsipeptides from the marine cyanobacterium Symploca laete-viridis” (J Nat Prod, 2000).
Calls of active or inactive are those of the source.

What was measured:
Format in all cases: functional, cell-based
P388 = assay: Cytotoxicity against mouse P388 cells at 2 ug/mL
A549 = assay: Cytotoxicity against human A549 cells at 2 ug/mL
HT-29 = assay: Cytotoxicity against human HT29 cells at 2 ug/mL

Measured: Activity

C#CCCCC1NC(=O)[C@H]([C@@H](C)CC)N(C)C(=O)[C@@H]2CCCN2C(=O)[C@@H]2CCCN2C(=O)[C@H](CC(C)C)NC(=O)[C@H](C(C)C)N(C)C(=O)[C@H](C)NC(=O)[C@@H](C)N(C)C(=O)[C@H](Cc2ccccc2)N(C)C(=O)[C@H](COC)N(C)C(=O)[C@H](C(C)C)N(C)C(=O)[C@@H]2CCCN2C(=O)[C@H](C)NC(=O)[C@H](C(C)C)OC(=O)C1C (some centres undefined)
inactive: all assays above

CCCC1NC(=O)[C@H](Cc2ccccc2)N(C)C(=O)[C@@H]2CCCN2C(=O)C(C(C)C)N(C)C(=O)[C@@H]2CCCN2C(=O)[C@H]([C@@H](C)CC)NC(=O)C(C(C)C)N(C)C(=O)[C@@H]2CCCN2C(=O)C(C(C)C)N(C)C(=O)C(C(C)C)N(C)C(=O)[C@H](C(C)C)NC(=O)[C@H](C)N(C)C(=O)[C@@H](C(C)C)OC(=O)C1C (some centres undefined)
inactive: all assays above

CCCCC(C)C(=O)N1CCC[C@H]1C(=O)N(C)C(Cc1ccccc1)C(=O)NCC(=O)N(C)[C@@H](C(=O)N[C@H](C(=O)NCC(=O)N(C)C(Cc1ccccc1)C(=O)N1CCC[C@@H]1C(=O)OC)[C@@H](C)CC)C(C)C (some centres undefined)
inactive: all assays above
